Measured values taken from patent publication US20250206732A1, “COMPOUNDS AND METHODS FOR THE TARGETED DEGRADATION OF KRAS” (Arvinas Operations, Inc., priority 2022, published 2025).

Target: T1, AsPC-1 HiBiT-KRASG12D (Homo sapiens, UniProt P01116, G12D)
T1 construct: insert the HiBiT tag onto the N-terminus of one or more of the endogenous KRAS alleles; endogenous in cells; host or cells: AsPC-1 (ATCC CRL-1682), CRISPR-Cas9 knock-in clone, one tagged allele
Assay: HiBiT degradation assay (G12D), AsPC-1 HiBiT-KRASG12D cells
Type: cell-based
Settings: 24 hours treatment; for Dmax: ASPC1, AsPC-1 HiBiT-KRASG12D cells, maximum degradation observed; for DC50: AsPC-1 HiBiT-KRASG12D cells, HiBiT luminescence
Outline: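 In this degradation format, an engineered AsPC-1 clone with HiBiT fused to the KRAS N-terminus is exposed to compounds for 24 hours, after which remaining tagged protein is quantified by lytic HiBiT luminescence.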

T1 sequence (P01116 1-188 isoform P01116-2 G12D): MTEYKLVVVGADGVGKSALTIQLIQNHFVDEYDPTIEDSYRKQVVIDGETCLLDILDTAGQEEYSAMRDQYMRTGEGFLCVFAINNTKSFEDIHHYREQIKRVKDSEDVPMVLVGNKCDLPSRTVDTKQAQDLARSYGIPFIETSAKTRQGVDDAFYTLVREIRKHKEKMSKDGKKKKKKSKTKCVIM

Row | Structure (SMILES) | Dmax | DC50
1 | CCc1cccc2cc(O)cc(-c3ncc4c(N5CCCCCC5)nc(OC[C@]56CCCN5[C@H](COC(=O)N5CCC(Oc7cc([C@@H](C(=O)N8C[C@H](O)C[C@H]8C(=O)N[C@@H](C)c8ccc(-c9scnc9C)cc8)C(C)C)on7)CC5)CC6)nc4c3F)c12 [Compound 282, [(3S,8R)-8-[[4-(azepan-1-yl)-7-(8-ethyl-3-hydroxy-1-naphthyl)-8-fluoro-pyrido[4,3-d]pyrimidin-2-yl]oxymethyl]-1,2,3,5,6,7-hexahydropyrrolizin-3-yl]methyl 4-[5-[(1S)-1-[(2S,4R)-4-hydroxy-2-[[(1S)-1-[4-(4-methylthiazol-5-yl)phenyl]ethyl]carbamoyl]pyrrolidine-1-carbonyl]-2-methyl-propyl]isoxazol-3-yl]oxypiperidine-1-carboxylate] | < 20% | 0.6 to 1 µM
2 | CCc1cccc2cc(O)cc(-c3ncc4c(N5CC6CCC(C5)N6)nc(OCCN5CCC6(CC5)CN(c5cc([C@H](C(=O)N7C[C@H](O)C[C@H]7C(=O)N[C@@H](C)c7ccc(-c8ccnn8C)cc7)C(C)C)on5)C6)nc4c3F)c12 (relative stereo) [Compound 140, (2S,4R)-1-[(2R*)-2-[3-(7-{2-[(4-{3,8-diazabicyclo[3.2.1]octan-3-yl}-7-(8-ethyl-3-hydroxynaphthalen-1-yl)-8-fluoropyrido[4,3-d]pyrimidin-2-yl)oxy]ethyl}-2,7-diazaspiro[3.5]nonan-2-yl)-1,2-oxazol-5-yl]-3-methylbutanoyl]-4-hydroxy-N-[(1S)-1-[4-(1-methyl-1H-pyrazol-5-yl)phenyl]ethyl]pyrrolidine-2-carboxamide] | 80 to 100% | < 0.6 µM
3 | CCc1cccc2cc(O)cc(-c3ncc4c(N5CC6CCC(C5)N6)nc(OC[C@@]56CCCN5[C@H](COc5cc([C@H](C(=O)N7C[C@H](O)C[C@H]7C(=O)N[C@@H](C)c7ccc(-c8scnc8C)cc7)C(C)C)on5)CC6)nc4c3F)c12 [Compound 29, (2S,4R)-1-[(2R)-2-(3-{[(3S,7aS)-7a-{[(4-{3,8-diazabicyclo[3.2.1]octan-3-yl}-7-(8-ethyl-3-hydroxynaphthalen-1-yl)-8-fluoropyrido[4,3-d]pyrimidin-2-yl)oxy]methyl}-hexahydro-1H-pyrrolizin-3-yl]methoxy}-1,2-oxazol-5-yl)-3-methylbutanoyl]-4-hydroxy-N-[(1S)-1-[4-(4-methyl-1,3-thiazol-5-yl)phenyl]ethyl]pyrrolidine-2-carboxamide] | 80 to 100% | < 0.6 µM
4 | C#Cc1c(F)ccc2cc(O)cc(-c3ncc4c(N5CC6CCC(C5)N6)nc(OCCN5CCC(COc6cc([C@@H](C(=O)N7C[C@H](O)C[C@H]7C(=O)N[C@@H](C)c7ccc(-c8ccnn8C)cc7)C(C)C)on6)CC5)nc4c3F)c12 (relative stereo) [Compound 86, (2S,4R)-1-[(2R*)-2-{3-[(1-{2-[(4-{3,8-diazabicyclo[3.2.1]octan-3-yl}-7-(8-ethynyl-7-fluoro-3-hydroxynaphthalen-1-yl)-8-fluoropyrido[4,3-d]pyrimidin-2-yl)oxy]ethyl}piperidin-4-yl)methoxy]-1,2-oxazol-5-yl}-3-methylbutanoyl]-4-hydroxy-N-[(1S)-1-[4-(1-methyl-1H-pyrazol-5-yl)phenyl]ethyl]pyrrolidine-2-carboxamide] | 80 to 100% | 1 to 3 µM
5 | CCc1cccc2cccc(-c3ncc4c(N5CC6CCC(C5)N6)nc(OC[C@@H]5CC[C@@H](COC(=O)N6CCN(c7cc([C@H](C(=O)N8C[C@H](O)C[C@H]8C(=O)N[C@@H](C)c8ccc(-c9scnc9C)cc8)C(C)C)on7)[C@H](C)C6)N5C)nc4c3F)c12 [Compound 222, [(2S,5S)-5-{[(4-{3,8-diazabicyclo[3.2.1]octan-3-yl}-7-(8-ethylnaphthalen-1-yl)-8-fluoropyrido[4,3-d]pyrimidin-2-yl)oxy]methyl}-1-methylpyrrolidin-2-yl]methyl (3R)-4-{5-[(2R)-1-[(2S,4R)-4-hydroxy-2-{[(1S)-1-[4-(4-methyl-1,3-thiazol-5-yl)phenyl]ethyl]carbamoyl}pyrrolidin-1-yl]-3-methyl-1-oxobutan-2-yl]-1,2-oxazol-3-yl}-3-methylpiperazine-1-carboxylate] | 60 to 80% | < 0.6 µM
6 | C#Cc1c(F)ccc2cc(O)cc(-c3ncc4c(N5CC6CCC(C5)N6)nc(OCCN5CCC(F)(COc6cc([C@@H](C(=O)N7C[C@H](O)C[C@H]7C(=O)N[C@@H](C)c7ccc(-c8scnc8C)cc7)C(C)C)on6)CC5)nc4c3F)c12 [Compound 154, (2S,4R)-1-[(2S)-2-{3-[(1-{2-[(4-{3,8-diazabicyclo[3.2.1]octan-3-yl}-7-(8-ethynyl-7-fluoro-3-hydroxynaphthalen-1-yl)-8-fluoropyrido[4,3-d]pyrimidin-2-yl)oxy]ethyl}-4-fluoropiperidin-4-yl)methoxy]-1,2-oxazol-5-yl}-3-methylbutanoyl]-4-hydroxy-N-[(1S)-1-[4-(4-methyl-1,3-thiazol-5-yl)phenyl]ethyl]pyrrolidine-2-carboxamide] | 80 to 100% | < 0.6 µM
7 | CCc1cccc2cc(O)cc(-c3ncc4c(N5CC6CCC(C5)N6)nc(OC[C@]56CCCN5[C@H](COC(=O)N5CCN(c7cc([C@H](C(=O)N8C[C@H](O)C[C@H]8C(=O)N[C@@H](C)c8ccc(-c9scnc9C)cc8)C(C)C)on7)C[C@H]5C)CC6)nc4c3F)c12 [Compound 120, [(3S,7aR)-7a-{[(4-{3,8-diazabicyclo[3.2.1]octan-3-yl}-7-(8-ethyl-3-hydroxynaphthalen-1-yl)-8-fluoropyrido[4,3-d]pyrimidin-2-yl)oxy]methyl}-hexahydro-1H-pyrrolizin-3-yl]methyl (2R)-4-{5-[(2R)-1-[(2S,4R)-4-hydroxy-2-{[(1S)-1-[4-(4-methyl-1,3-thiazol-5-yl)phenyl]ethyl]carbamoyl}pyrrolidin-1-yl]-3-methyl-1-oxobutan-2-yl]-1,2-oxazol-3-yl}-2-methylpiperazine-1-carboxylate] | 80 to 100% | < 0.6 µM
8 | Cc1ncsc1-c1ccc([C@H](C)NC(=O)[C@@H]2C[C@@H](O)CN2C(=O)[C@@H](c2cc(N3CCN(C(=O)OC[C@@H]4CC[C@@]5(COc6nc(N7CC8CCC(C7)N8)c7cnc(-c8cc(O)cc(Cl)c8C8CC8)c(F)c7n6)CCCN45)CC3)no2)C(C)C)cc1 (relative stereo) [Compound 258, [(3S,8R)-8-[[7-(3-chloro-2-cyclopropyl-5-hydroxy-phenyl)-4-(3,8-diazabicyclo[3.2.1]octan-3-yl)-8-fluoro-pyrido[4,3-d]pyrimidin-2-yl]oxymethyl]-1,2,3,5,6,7-hexahydropyrrolizin-3-yl]methyl 4-[5-[(1R)-1-[(2S,4R)-4-hydroxy-2-[[(1S)-1-[4-(4-methylthiazol-5-yl)phenyl]ethyl]carbamoyl]pyrrolidine-1-carbonyl]-2-methyl-propyl]isoxazol-3-yl]piperazine-1-carboxylate] | 80 to 100% | < 0.6 µM
9 | C#Cc1c(F)ccc2cccc(-c3ncc4c(N5CC6CCC(C5)N6)nc(OC[C@]56CCCN5[C@@H](COC(=O)N5CCN(c7cc([C@H](C(=O)N8C[C@H](O)C[C@H]8C(=O)N[C@@H](C)c8ccc(-c9scnc9C)cc8)C(C)C)on7)CC5)CC6)nc4c3F)c12 (single isomer, unassigned) [Compound 333] | 80 to 100% | < 0.6 µM
